Results published in patent US11219614B2, “Combination cancer therapy with pentaaza macrocyclic ring complex and ascorbate compound” (Galera Labs, LLC, priority 2016, dated 2022).

System: head and neck squamous cell carcinoma cells (SQ20B)
Experiment: clonogenic cell survival assay, SQ20B
Format: cell-based, Human
Procedure: (§1) FIG. 5 is a plot showing the surviving fraction of SQ20B cells for increasing amounts of ascorbate, as determined by a clonogenic cell survival assay used to determine the effects of the compound alone and in combination with a pentaaza macrocyclic ring complex (GC4419). Human head and neck squamous cell carcinoma cells (SQ20B) were exponentially grown in culture for 48 hours. The cells were then treated with 5-20 μM GC4419 for 24 hours, followed by treatment with 5-20 pmol/cell ascorbate for 1 hour. The cells were then trypsinized, counted, replated at varying lower densities and incubated. Plates were stained and counted for clonogenic survival assays.
FIG. 7 is a graph showing the surviving fraction of SQ20B cells treated with ascorbate and combinations including ascorbate. The effects of ascorbate in combination with a pentaaza macrocyclic ring complex (GC4419) was tested in a clonogenic cell survival assay to determine the effects of the combination alone and when paired with ionizing radiation. Human head and neck squamous cell carcinoma cells (SQ20B) were plated and grown in culture for 48 hours. The cells were then treated with 5 μM GC4419 for 24 hours and 10 pmol/cell ascorbate (AA) for 1 hour, either alone, in combination (GC+AA), and/or paired with a dose of ionizing radiation (2 Gy). After the ionizing radiation dose, the cells were trypsinized, counted, replated at varying lower densities and incubated. Plates were stained and counted for clonogenic survival assays.
FIG. 8 is a graph showing the surviving fraction of SQ20B cells treated with ascorbate and combinations including ascorbate. The effects of ascorbate in combination with a pentaaza macrocyclic ring complex (GC4419) was tested in a clonogenic cell survival assay to determine the effects of the combination alone and when paired with the chemotherapeutic agent cisplatin. Human head and neck squamous cell carcinoma cells (SQ20B) were plated and grown in culture for 48 hours. The cells were then treated with cisplatin for 6 hours, 10 μM GC4419 for 3 hours, and 10 pmol/cell ascorbate (AA) for 1 hour. The cells were then trypsinized, counted, replated at varying lower densities and incubated. Plates were stained and counted for clonogenic survival assays.
as §1, with “The effect” for “FIG. 5 is a plot showing the surviving fraction”, “ascorbate was tested in” for “SQ20B cells for increasing amounts of ascorbate, as determined by”, “assay” for “assay used”
The effects of ascorbate in combination with a pentaaza macrocyclic ring complex (GC4419) was tested in a clonogenic cell survival assay to determine the effects of the combination alone and when paired with ionizing radiation. Human head and neck squamous cell carcinoma cells (SQ20B) were plated and grown in culture for 48 hours. […] After the ionizing radiation dose, the cells were trypsinized, counted, replated at varying lower densities and incubated. Plates were stained and counted for clonogenic survival assays. […]

[Cl][Mn][Cl].c1cc2nc(c1)CN[C@H]1CCCC[C@@H]1NCCN[C@H]1CCCC[C@@H]1NC2 [GC4419]
synergistic activity of the combination (5 μM GC4419 24 h + 10 pmol/cell ascorbate 1 h (GC+AA), FIG. 7): more than merely an additive effect | cell killing (clonogenic survival) (5 μM GC4419 24 h + 10 pmol/cell ascorbate 1 h (GC+AA), compared to control and to each alone, FIG. 7): significant enhancements in cell killing | cytotoxicity (clonogenic survival) (5-20 pmol/cell ascorbate 1 h in combination with 5, 10 or 20 μM GC4419 24 h, FIG. 5): increases the cytotoxicity of GC4419 or ascorbate | sensitization to ionizing radiation (GC+AA+IR (2 Gy) compared to IR 2Gy alone, FIG. 7): sensitized the cancer cells to radiation | cell killing (clonogenic survival) (cisplatin 6 h + 10 μM GC4419 3 h + 10 pmol/cell ascorbate 1 h, compared to control and cisplatin, GC4419 or ascorbate monotherapies, FIG. 8): significant enhancements in cell killing
